Laboratory results as given in ChEMBL document CHEMBL3045788, “Effect of abamectin on root-knot nematodes and tomato yield” (Pest Manag Sci, 2012).
Activity calls are given as the source filed them. No cut-off for these calls is given here.

Legend:
Meloidogyne incognita [1] = assay: Nematicidal activity against second-stage juvenile Meloidogyne incognita (root-knot nematode) infested tomato field assessed as reduction in number of nematodes in soil at 8 kg/hectare measured after 20 days; type: functional, organism-based
Meloidogyne incognita [2] = assay: Nematicidal activity against second-stage juvenile Meloidogyne incognita (root-knot nematode) infested tomato field assessed as reduction in number of nematodes in soil at 8 kg/hectare measured after 60 days; type: functional, organism-based
Meloidogyne incognita [3] = assay: Nematicidal activity against second-stage juvenile Meloidogyne incognita (root-knot nematode) infested tomato field assessed as large fruit yield at 8 kg/hectare; type: functional
Meloidogyne incognita [4] = assay: Nematicidal activity against second-stage juvenile Meloidogyne incognita (root-knot nematode) infested tomato field assessed as reduction in root galling index at 8 kg/hectare measured after 30 days; type: functional, organism-based
Meloidogyne incognita [5] = assay: Nematicidal activity against second-stage juvenile Meloidogyne incognita (root-knot nematode) assessed as mortality after 48 hr; type: functional
Meloidogyne incognita [6] = assay: Nematicidal activity against second-stage juvenile Meloidogyne incognita (root-knot nematode) infested tomato plant under greenhouse condition assessed as plant vigour at 8 kg/hectare measured after 30 days; type: functional
Meloidogyne incognita [7] = assay: Nematicidal activity against second-stage juvenile Meloidogyne incognita (root-knot nematode) infested tomato plant under greenhouse condition assessed as reduction in root galling index at 8 kg/hectare measured after 30 days; type: functional, organism-based
Meloidogyne incognita [8] = assay: Nematicidal activity against second-stage juvenile Meloidogyne incognita (root-knot nematode) infested tomato field assessed as plant height at 8 kg/hectare measured after 30 days; type: functional
Meloidogyne incognita [9] = assay: Nematicidal activity against second-stage juvenile Meloidogyne incognita (root-knot nematode) infested tomato field assessed as medium fruit yield at 8 kg/hectare; type: functional
Meloidogyne incognita [10] = assay: Nematicidal activity against second-stage juvenile Meloidogyne incognita (root-knot nematode) infested tomato field assessed as plant height at 8 kg/hectare measured after 50 days; type: functional
Meloidogyne incognita [11] = assay: Nematicidal activity against second-stage juvenile Meloidogyne incognita (root-knot nematode) infested tomato field assessed as marketable yield at 8 kg/hectare; type: functional
Meloidogyne incognita [12] = assay: Nematicidal activity against second-stage juvenile Meloidogyne incognita (root-knot nematode) infested tomato field assessed as reduction in number of nematodes in soil at 8 kg/hectare measured after 40 days; type: functional, organism-based
Meloidogyne incognita [13] = assay: Nematicidal activity against second-stage juvenile Meloidogyne incognita (root-knot nematode) infested tomato field assessed as plant vigour at 8 kg/hectare measured after 30 days; type: functional
Meloidogyne incognita [14] = assay: Nematicidal activity against second-stage juvenile Meloidogyne incognita (root-knot nematode) infested tomato plant under greenhouse condition assessed as fresh root weight at 8 kg/hectare measured after 30 days; type: functional
Meloidogyne incognita [15] = assay: Nematicidal activity against second-stage juvenile Meloidogyne incognita (root-knot nematode) infested tomato plant under greenhouse condition assessed as plant height at 8 kg/hectare measured after 30 days; type: functional
Meloidogyne incognita [16] = assay: Nematicidal activity against second-stage juvenile Meloidogyne incognita (root-knot nematode) infested tomato field assessed as extra-large fruit yield at 8 kg/hectare; type: functional

CCOP(=O)(SC(C)CC)SC(C)CC (configuration not stated) [CADUSAFOS]
Activity (Meloidogyne incognita [1]): Active | Activity (Meloidogyne incognita [2]): Active | Activity (Meloidogyne incognita [3]): 19.9% | Activity (Meloidogyne incognita [4]): Active | LC50 (Meloidogyne incognita [5]): 13.43 mgAi/L | LC90 (Meloidogyne incognita [5]): 50.34 mgAi/L | Activity (Meloidogyne incognita [6]): 91% | Activity (Meloidogyne incognita [7]): Active | Activity (Meloidogyne incognita [8]): 38.6 cm | Activity (Meloidogyne incognita [9]): 41.6% | Activity (Meloidogyne incognita [10]): 101.8 cm | Activity (Meloidogyne incognita [11]): 68.7% | Activity (Meloidogyne incognita [12]): Active | Activity (Meloidogyne incognita [13]): 90% | Activity (Meloidogyne incognita [14]): 1.13 g | Activity (Meloidogyne incognita [15]): 39.2 cm | Activity (Meloidogyne incognita [16]): 7.2%
